Some test systems named below: A549 NSCLC; HCT-116 colon; A498 renal; TK-10 renal; HT29 colon; PC-3 prostate; M14 melanoma; HS 578T breast; DU-145 prostate; CAKI-1 renal.
Common to all, as to assay: NCI tumour cell line growth inhibition, 48 h

SMILES strings stand for the structures.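 48-hour exposure; five concentrations; linearly interpolated endpoints. At the GI50, growth is halved. Definition used: TGI = concentration required for complete inhibition of growth.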 Some results are limits rather than exact numbers.

As to `CC(=O)/C=C/c1ccc(N(CCO)Cc2ccc(C(C)(C)C)cc2)cc1`, the GI50 is 56.5 µM in the assay with A549 NSCLC; 30 µM in the assay on HCT-116 colon; 113 µM with A498 renal; 112 µM with TK-10 renal; 27.7 µM with HT29 colon; 32.2 µM in the assay with PC-3 prostate. For the same molecule, the GI50 is 48.9 µM in the assay with M14 melanoma, 80 µM in the assay with HS 578T breast and 73.2 µM in the assay on DU-145 prostate. Besides, the TGI with A549 NSCLC worked out at 182 µM; with HCT-116 colon, 125 µM; with A498 renal it was 236 µM; with TK-10 renal, 237 µM; with HT29 colon, 103 µM; with PC-3 prostate, 128 µM. Moreover, the TGI in the assay on M14 melanoma was 200 µM; in the assay on HS 578T breast, 297 µM; in the assay on DU-145 prostate it was 206 µM.
On to `Cc1cn2c(/C=C3\C(=O)N(C)c4ccc(Cl)cc43)c(C)nc2s1`, for which the GI50 with A549 NSCLC was 6.88 µM; in the assay with HCT-116 colon it was 2.55 µM; in the assay with A498 renal it was 10.8 µM; in the assay with CAKI-1 renal, 3.11 µM; in the assay with TK-10 renal it was 9.65 µM; in the assay on HT29 colon, 1.9 µM. In addition, the GI50 is 0.99 µM with PC-3 prostate, 3.3 µM in the assay with M14 melanoma and 8.28 µM in the assay on HS 578T breast. Also, the TGI in the assay on A549 NSCLC is 32.9 µM; with HCT-116 colon, 14.6 µM; in the assay on A498 renal, over 100 µM; with CAKI-1 renal, over 100 µM; in the assay with TK-10 renal it was 73 µM; with HT29 colon, 12 µM. For the same molecule, the TGI in the assay on PC-3 prostate is 4.38 µM; with M14 melanoma, 32.1 µM; in the assay with HS 578T breast, over 100 µM.
On to `C=C1C(=O)O[C@H]2[C@H]1CC/C(COC(=O)N[C@H](Cc1c[nH]c3ccccc13)C(=O)OC)=C\CC[C@@]1(C)O[C@@H]21`, for which the GI50 in the assay with A549 NSCLC is 14.9 µM; with HCT-116 colon, 1.16 µM; with A498 renal, 10.9 µM; in the assay with TK-10 renal it was 2.1 µM; in the assay with HT29 colon, 2.46 µM; in the assay on PC-3 prostate it was 6.49 µM. Moreover, the GI50 is 2.06 µM with M14 melanoma, 12.6 µM in the assay with HS 578T breast and 1.61 µM in the assay on DU-145 prostate. Further, the TGI with A549 NSCLC stood at 32.7 µM; in the assay with HCT-116 colon, 2.59 µM; in the assay on A498 renal, 22.9 µM; in the assay with TK-10 renal it was 5.07 µM; in the assay on HT29 colon, 7.92 µM; in the assay with PC-3 prostate, 20.5 µM. The TGI in the assay with M14 melanoma was found to be 6.08 µM; in the assay on HS 578T breast, 44.2 µM; in the assay with DU-145 prostate it was 4.37 µM.
Turning to `CC(=N/NC(N)=S)/C(C)=N/NC(N)=S`, the TGI in the assay on A549 NSCLC, in the assay with HCT-116 colon, in the assay on TK-10 renal, with HT29 colon, in the assay with PC-3 prostate and with M14 melanoma was over 100 µM throughout. The TGI in the assay on HS 578T breast and in the assay with DU-145 prostate was over 100 µM each time.
With `CN(C)CCNC(=O)c1cccc2c1nc(-c1ccncc1)c1ccccc12`, the TGI came to 12.6 µM in the assay on A549 NSCLC; 9.23 µM in the assay on HCT-116 colon; 7.67 µM in the assay on A498 renal; 24.5 µM in the assay on CAKI-1 renal; 7.77 µM with TK-10 renal; 19.4 µM in the assay on HT29 colon. Besides, the TGI in the assay with M14 melanoma was determined as 16.8 µM.
For `CC[P+]1(c2ccccc2)CCCCC1`, the TGI in the assay with A549 NSCLC, in the assay with HCT-116 colon, in the assay with CAKI-1 renal, in the assay with TK-10 renal, with HT29 colon and in the assay on M14 melanoma was over 100 µM in each case.
In the case of `O=C(OCc1ccccc1)n1cccc1`, the TGI with A549 NSCLC, in the assay on HCT-116 colon, with A498 renal, in the assay with CAKI-1 renal, with TK-10 renal and with HT29 colon was over 100 µM throughout. Moreover, in the assay with M14 melanoma, the TGI was over 100 µM.
As for `Oc1ccc(/C=N/NC(=S)Nc2cccnc2)nc1`, the TGI was over 100 µM in the assay with A549 NSCLC; over 100 µM in the assay with HCT-116 colon; over 81.2 µM in the assay with A498 renal; over 100 µM with CAKI-1 renal; over 25.7 µM in the assay on TK-10 renal; over 100 µM with HT29 colon. Moreover, the results for the TGI in the assay on PC-3 prostate, in the assay on M14 melanoma and in the assay with DU-145 prostate were over 100 µM, over 33.3 µM and over 89.4 µM, respectively.
In the case of `CC(=O)c1ccc(Oc2c3ccccc3nc3occc23)cc1`, the GI50 in the assay with A549 NSCLC is 61.9 µM; with HCT-116 colon, 7.35 µM; with A498 renal it was 28.1 µM; with TK-10 renal, 11.4 µM; in the assay with HT29 colon, 7.13 µM; with PC-3 prostate, 9.77 µM. The GI50 in the assay with M14 melanoma is 6.81 µM; with HS 578T breast, 12.4 µM; with DU-145 prostate it was 15.6 µM. For the same molecule, the TGI in the assay on A549 NSCLC is over 100 µM; with HCT-116 colon, over 100 µM; in the assay on A498 renal, 80.6 µM; with TK-10 renal, over 100 µM; in the assay on HT29 colon, over 100 µM; in the assay on PC-3 prostate, over 100 µM. Besides, the figures for the TGI in the assay with M14 melanoma, with HS 578T breast and in the assay with DU-145 prostate were over 100 µM, 75.5 µM and over 100 µM, respectively.
Consider `CCCCC[C@H]1C/C=C2/C(=O)C(Cl)=C[C@@H]2C/C=C\CCCC(=O)O1`, for which the GI50 in the assay with A549 NSCLC was 0.625 µM; with HCT-116 colon, 0.201 µM; in the assay with A498 renal, 0.546 µM; in the assay on TK-10 renal, 0.612 µM; in the assay on HT29 colon, 0.461 µM; with PC-3 prostate, 0.473 µM. The GI50 was 0.422 µM with M14 melanoma, 1.1 µM in the assay with HS 578T breast and 0.638 µM in the assay on DU-145 prostate. For the same molecule, the TGI with A549 NSCLC was found to be 1.87 µM; with HCT-116 colon, 0.57 µM; in the assay on A498 renal, 1.46 µM; in the assay on TK-10 renal, 1.17 µM; with HT29 colon, 2.26 µM; in the assay on PC-3 prostate, 1.27 µM. Also, the TGI is 0.999 µM in the assay on M14 melanoma, 25 µM in the assay on HS 578T breast and 2.51 µM with DU-145 prostate.
In the case of `O=C1CCc2ccc(O)c(c2)Oc2ccc(cc2)[C@@H]2O[C@@H]2CO1`, the TGI was over 100 µM in the assay with A549 NSCLC; over 100 µM with HCT-116 colon; 70.7 µM in the assay on A498 renal; over 100 µM in the assay on CAKI-1 renal; over 100 µM with TK-10 renal; over 100 µM in the assay on HT29 colon. In the assay with M14 melanoma, this molecule gave a TGI of over 100 µM.

Source of the values: PubChem BioAssay (NCI).
